Reference: patent US7816371B2, “Bicycloheteroaryl compounds as P2X7 modulators and uses thereof” (Renovis, Inc., priority 2006, dated 2010)

Key:
P2X7 receptor = target: T1, P2X7 receptor (Homo sapiens, UniProt Q99572); assay: IL-1β release assay in differentiated THP-1 cells stimulated with BzATP (Example 9); % inhibition and IC50; format: cell-based; conditions: THP-1 cells differentiated with LPS and IFN-γ, 30 min pretreatment, BzATP 250 uM, IL-1β by ELISA
T1 construct: host or cells: THP-1 cells differentiated with LPS and IFN-γ
T1 sequence (Q99572 1-595): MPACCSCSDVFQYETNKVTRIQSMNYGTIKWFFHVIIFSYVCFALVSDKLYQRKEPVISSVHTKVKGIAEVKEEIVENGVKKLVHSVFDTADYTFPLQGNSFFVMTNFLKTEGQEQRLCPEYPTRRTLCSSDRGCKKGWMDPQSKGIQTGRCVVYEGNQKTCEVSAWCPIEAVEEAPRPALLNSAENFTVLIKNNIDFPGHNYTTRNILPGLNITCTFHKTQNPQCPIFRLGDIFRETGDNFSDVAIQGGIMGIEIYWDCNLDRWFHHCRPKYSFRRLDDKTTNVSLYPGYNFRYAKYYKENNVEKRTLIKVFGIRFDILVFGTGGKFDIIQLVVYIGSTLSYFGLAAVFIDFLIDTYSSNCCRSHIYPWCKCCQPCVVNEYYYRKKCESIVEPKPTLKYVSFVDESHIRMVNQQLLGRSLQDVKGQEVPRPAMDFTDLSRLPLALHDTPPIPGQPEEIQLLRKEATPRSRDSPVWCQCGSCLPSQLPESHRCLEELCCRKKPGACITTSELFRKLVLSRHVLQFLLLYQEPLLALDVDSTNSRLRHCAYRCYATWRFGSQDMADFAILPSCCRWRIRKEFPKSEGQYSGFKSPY
Outline: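 Differentiated THP-1 cells pretreated 30 min with compound in RPMI before BzATP stimulation. Supernatant IL-1β measured by ELISA. Percent inhibition derived from background-adjusted IL-1β of treated versus untreated cells.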

[1] = Determination of aqueous (kinetic) solubility; format: physicochemical; conditions: buffer pH 7.4, room temperature
Procedure: The mixture was vortexed for 1 hour and equilibrated overnight at room temperature. The mixture was filtered through a saturated filter and the filtrate was analyzed by LC/MS/MS.

[2] = Pharmacokinetic evaluation following intravenous and oral administration in rats (oral bioavailability); format: in vivo, Male Sprague-Dawley rats; conditions: PO 1 to 5 mg/kg vs IV 1 mg/kg, AUCinf normalized to dose
Procedure: Male Sprague-Dawley rats are acclimatized for at least 24 hours prior to experiment initiation. […] During the first 3 hours of experimentation, the animals receive only water ad libitum. At least three animals each are tested for intravenous and oral dosage. For intravenous formulation, compounds were dissolved (0.25 to 1 mg/mL) in a mixture of 3% dimethyl sulfoxide, 40% PEG 400 and the rest percentage of 40% Captisol in water (w/v). The animals are weighed before dosing. The determined body weight is used to calculate the dose volume for each animal.
PO rats are typically dosed through oral gavage following the same dose volume formula as IV to achieve a dose level of 1 to 5 mg/kg. […] About 250 uL of blood is obtained at each time point from the animal. Equal volumes of 0.9% normal saline are replaced to prevent dehydration. The whole blood samples are maintained on ice until centrifugation. Blood samples are then centrifuged at 14,000 rpm for 10 minutes at 4° C. and the upper plasma layer transferred into a clean vial and stored at −80° C. The resulting plasma samples are then analyzed by liquid chromatography-tandem mass spectrometry. Following the measurement of plasma samples and dosing solutions, plasma concentration-time curve is plotted. […] The % F is reported as the mean % F of all animals dosed orally with the compound of the invention at the specified level (see Table 4 below).

| Compound | IC50 (P2X7 receptor) | solubility [1] | Oral Bioavailability F (%) [2] |
| --- | --- | --- | --- |
| Cc1ccc2c(c1NC(=O)Cc1ccc(C(F)(F)F)c(F)c1)CCN([C@H](C)CO)C2=O [Compound 401, N-[6-Methyl-2-((R)-2-hydroxy-1-methyl-ethyl)-1-oxo-1,2,3,4-tetrahydro-isoquinolin-5-yl]-2-(3-fluoro-4-trifluoromethyl-phenyl)-acetamide] | 1.44 nM | > 75 µM |  |
| Cc1ccc2c(=O)n([C@H](C)CO)ccc2c1NC(=O)Cc1cccc(C(F)(F)F)c1F [Compound 395] |  |  | ++ (26-50% F) |
| C[C@H](CO)n1ccc2c(NC(=O)Cc3ccc(Cl)cc3F)cccc2c1=O [Compound 327] | 39.4 nM |  |  |
| CC(C)[C@H](CO)n1ccc2c(NC(=O)[C@H](C)c3ccc(Cl)cc3)cccc2c1=O [Compound 273, (R)-2-(4-Chloro-phenyl)-N-[(R)-2-(1-hydroxymethyl-2-methyl-propyl)-1-oxo-1,2-dihydro-isoquinolin-5-yl]-propionamide] | 3.54 nM |  |  |
| O=C(Cc1ccc(Cl)c(Cl)c1)Nc1cccc2c(=O)n(C(CO)CO)ccc12 [Compound 80] | 27.5 nM |  |  |
| C[C@H](CO)n1ccc2c(NC(=O)Cc3ccc(Cl)c(Cl)c3)cccc2c1=O [Compound 333, 2-(3,4-Dichloro-phenyl)-N-[2-((R)-2-hydroxy-1-methyl-ethyl)-1-oxo-1,2-dihydro-isoquinolin-5-yl]-acetamide] | 1.01 nM |  |  |
| O=C(Cc1ccc(Cl)cc1C(F)(F)F)Nc1cccc2c(=O)n(C(CO)CO)ccc12 [Compound 228] | 212 nM |  |  |

Other lines, results leading:

| IC50 (P2X7 receptor) | solubility [1] | Oral Bioavailability F (%) [2] | Compound |
| --- | --- | --- | --- |
| 32.2 nM |  |  | Cc1ccc(CC(=O)Nc2cccc3c(=O)n([C@H](C)C(N)=O)ccc23)cc1F [Compound 302] |
| 14.6 nM |  |  | O=C(Cc1ccc(C(F)(F)F)c(F)c1)Nc1cccc2c(=O)n(CCO)ccc12 [Compound 357] |
| 3.19 nM |  |  | CC(C(=O)Nc1cccc2c(=O)n([C@H](C)C(N)=O)ccc12)c1ccc(Cl)c(C(F)(F)F)c1 (stereo partly drawn) [Compound 267, (R)-2-{5-[2-(4-Chloro-3-trifluoromethyl-phenyl)-propionylamino]-1-oxo-1H-isoquinolin-2-yl}-propionamide] |
| 663 nM |  |  | C[C@H](C(N)=O)n1ccc2c(NC(=O)Cc3ccccc3F)cccc2c1=O [Compound 294] |
| 13.3 nM |  |  | C[C@H](CO)n1ccc2c(NC(=O)Cc3ccc(Cl)c(F)c3)cccc2c1=O [Compound 330, 2-(4-Chloro-3-fluorophenyl)-N-[2-((R)-2-hydroxy-1-methyl-ethyl)-1-oxo-1,2-dihydro-isoquinolin-5-yl]-acetamide] |
| 5.07 nM |  |  | C[C@H](C(N)=O)n1ccc2c(NC(=O)Cc3ccc(C(F)(F)F)c(F)c3)cccc2c1=O [Compound 306] |
| 1.14 nM |  |  | C[C@H](CO)n1ccc2c(NC(=O)Cc3ccc(Cl)c(C(F)(F)F)c3)cccc2c1=O [Compound 362] |
| 694 nM |  |  | C[C@H](C(N)=O)n1ccc2c(NC(=O)Cc3ccccc3Cl)cccc2c1=O [Compound 260] |
